Article PMC5218480 (PLoS ONE, 2017)

System: MV-4-11 cells
Assay: Gene expression microarray analysis (Affymetrix PrimeView) and GSEA
Assay type: cell-based, human
Parameters: RFU PODN (11730768_x_at) / Fold change /veh PODN (11730768_x_at) / RFU LINC00158 (11744669_a_at) / Fold change /veh LINC00158 (11744669_a_at) / RFU DUSP10 (11751237_a_at) / Fold change /veh DUSP10 (11751237_a_at) / RFU ID3 (11757404_x_at) / Fold change /veh ID3 (11757404_x_at) / RFU PLEKHG5 (11737974_s_at) / Fold change /veh PLEKHG5 (11737974_s_at) / RFU LRRC4B (11730491_at) / Fold change /veh LRRC4B (11730491_at) / RFU GIMAP4 (11747438_a_at) / Fold change /veh GIMAP4 (11747438_a_at) / RFU KRT8 (11758183_x_at) / Fold change /veh KRT8 (11758183_x_at) / RFU CNN1 (11734310_a_at) / Fold change /veh CNN1 (11734310_a_at) / RFU VPS37D (11726825_at) / Fold change /veh VPS37D (11726825_at) / RFU C10orf10 (11716522_x_at) / Fold change /veh C10orf10 (11716522_x_at) / RFU KIR2DL2 /// KIR2DL4 /// KIR2DL5A /// KIR2DL5B /// KIR2DS1 /// KIR2DS2 /// KIR2DS3 /// KIR2DS4 /// KIR3DL3 /// KIR3DL3 /// KIR3DS1 (11738374_at) / Fold change /veh KIR2DL2 /// KIR2DL4 /// KIR2DL5A /// KIR2DL5B /// KIR2DS1 /// KIR2DS2 /// KIR2DS3 /// KIR2DS4 /// KIR3DL3 /// KIR3DL3 /// KIR3DS1 (11738374_at) / RFU C1QL1 (11718748_at) / Fold change /veh C1QL1 (11718748_at) / RFU TMPRSS4 (11747572_a_at) / Fold change /veh TMPRSS4 (11747572_a_at) / RFU HAMP (11756126_x_at) / Fold change /veh HAMP (11756126_x_at) / RFU RNFT2 (11725882_a_at) / Fold change /veh RNFT2 (11725882_a_at) / RFU NR4A2 (11747474_a_at) / Fold change /veh NR4A2 (11747474_a_at) / RFU ABCC12 (11746883_a_at) / Fold change /veh ABCC12 (11746883_a_at) / RFU TMEM136 (11760407_x_at) / Fold change /veh TMEM136 (11760407_x_at) / RFU CLDN22 /// WWC2 (11732394_at) / Fold change /veh CLDN22 /// WWC2 (11732394_at) / RFU HLA-DPB1 (11760878_x_at) / Fold change /veh HLA-DPB1 (11760878_x_at) / RFU SPINT1 (11716480_a_at) / Fold change /veh SPINT1 (11716480_a_at) / RFU GAP43 (11754022_s_at) / Fold change /veh GAP43 (11754022_s_at) / RFU A4GNT (11735810_at) / Fold change /veh A4GNT (11735810_at) / RFU PRB3 (11715151_x_at) / Fold change /veh PRB3 (11715151_x_at) / RFU TUBB4B (11761932_at) / Fold change /veh TUBB4B (11761932_at) / RFU CAPN14 (11732068_a_at) / Fold change /veh CAPN14 (11732068_a_at) / RFU TMCC2 (11721928_a_at) / Fold change /veh TMCC2 (11721928_a_at) / RFU IRGQ (11745062_a_at) / Fold change /veh IRGQ (11745062_a_at) / RFU FAM174B (11720279_a_at) / Fold change /veh FAM174B (11720279_a_at) / RFU TMPRSS4 (11748680_a_at) / Fold change /veh TMPRSS4 (11748680_a_at) / RFU FAM212B (11763350_a_at) / Fold change /veh FAM212B (11763350_a_at) / RFU PLEKHG5 (11743358_a_at) / Fold change /veh PLEKHG5 (11743358_a_at) / RFU ZSCAN30 (11745921_a_at) / Fold change /veh ZSCAN30 (11745921_a_at) / RFU CMKLR1 (11741424_a_at) / Fold change /veh CMKLR1 (11741424_a_at) / RFU LOC101060620 /// MAPK8IP1 (11723275_at) / Fold change /veh LOC101060620 /// MAPK8IP1 (11723275_at) / RFU SPTSSB (11747773_x_at) / Fold change /veh SPTSSB (11747773_x_at) / RFU PRSS12 (11739890_at) / Fold change /veh PRSS12 (11739890_at) / RFU BIN1 (11741810_x_at) / Fold change /veh BIN1 (11741810_x_at) / RFU WNT11 (11732464_a_at) / Fold change /veh WNT11 (11732464_a_at) / RFU C10orf10 (11716521_a_at) / Fold change /veh C10orf10 (11716521_a_at) / RFU C5orf56 (11738089_at) / Fold change /veh C5orf56 (11738089_at) / RFU CYB561 (11721691_x_at) / Fold change /veh CYB561 (11721691_x_at) / RFU ANKRD19P (11752326_a_at) / Fold change /veh ANKRD19P (11752326_a_at) / RFU OR2T12 /// OR2T33 /// OR2T8 (11738714_s_at) / Fold change /veh OR2T12 /// OR2T33 /// OR2T8 (11738714_s_at) / RFU VCAN (11748164_a_at) / Fold change /veh VCAN (11748164_a_at) / RFU JSRP1 (11732532_at) / Fold change /veh JSRP1 (11732532_at) / RFU KRTAP10-11 (11738290_x_at) / Fold change /veh KRTAP10-11 (11738290_x_at) / RFU MYO3A (11730013_a_at) / Fold change /veh MYO3A (11730013_a_at) / RFU EBF3 (11725865_a_at) / Fold change /veh EBF3 (11725865_a_at) / RFU CAMK2N1 (11719241_x_at) / Fold change /veh CAMK2N1 (11719241_x_at) / RFU C5orf56 (11738088_a_at) / Fold change /veh C5orf56 (11738088_a_at) / RFU OLFML3 (11715873_a_at) / Fold change /veh OLFML3 (11715873_a_at) / RFU LOC100653217 /// NTM (11731650_a_at) / Fold change /veh LOC100653217 /// NTM (11731650_a_at) / RFU MAPK11 (11762145_a_at) / Fold change /veh MAPK11 (11762145_a_at) / RFU FIZ1 (11724087_x_at) / Fold change /veh FIZ1 (11724087_x_at) / RFU OASL (11726364_x_at) / Fold change /veh OASL (11726364_x_at) / RFU SOX15 (11748057_x_at) / Fold change /veh SOX15 (11748057_x_at) / RFU CD79A (11719716_a_at) / Fold change /veh CD79A (11719716_a_at) / RFU HIST1H1D (11736915_at) / Fold change /veh HIST1H1D (11736915_at) / RFU CASKIN2 (11723855_a_at) / Fold change /veh CASKIN2 (11723855_a_at) / RFU LOC730098 (11760151_x_at) / Fold change /veh LOC730098 (11760151_x_at) / RFU OR4N2 (11742367_at) / Fold change /veh OR4N2 (11742367_at) / RFU PRRT2 (11749266_a_at) / Fold change /veh PRRT2 (11749266_a_at) / RFU SNX32 (11753110_a_at) / Fold change /veh SNX32 (11753110_a_at) / RFU CDHR5 (11726645_a_at) / Fold change /veh CDHR5 (11726645_a_at) / RFU RCAN1 (11760418_a_at) / Fold change /veh RCAN1 (11760418_a_at) / RFU FAM167A (11723789_a_at) / Fold change /veh FAM167A (11723789_a_at) / RFU FAM26E (11764081_at) / Fold change /veh FAM26E (11764081_at) / RFU ISYNA1 (11749810_s_at) / Fold change /veh ISYNA1 (11749810_s_at) / RFU ACY1 (11761880_at) / Fold change /veh ACY1 (11761880_at) / RFU 11764098_at / Fold change /veh 11764098_at / RFU SAMD14 (11745864_x_at) / Fold change /veh SAMD14 (11745864_x_at) / RFU NPB (11741838_a_at) / Fold change /veh NPB (11741838_a_at) / RFU TMPRSS6 (11731388_a_at) / Fold change /veh TMPRSS6 (11731388_a_at) / RFU KRTAP10-2 (11738614_at) / Fold change /veh KRTAP10-2 (11738614_at) / RFU ARHGAP8 /// PRR5-ARHGAP8 (11727945_x_at) / Fold change /veh ARHGAP8 /// PRR5-ARHGAP8 (11727945_x_at) / RFU KRTAP5-7 /// NADSYN1 (11734609_at) / Fold change /veh KRTAP5-7 /// NADSYN1 (11734609_at) / RFU RASL12 (11751679_a_at) / Fold change /veh RASL12 (11751679_a_at) / RFU CDKN2B (11736163_a_at) / Fold change /veh CDKN2B (11736163_a_at) / RFU PRF1 (11729649_at) / Fold change /veh PRF1 (11729649_at) / RFU, ZNF638 /// ZNF638-IT1 / Fold change vs veh, ZNF638 /// ZNF638-IT1 / RFU, PANK3 / Fold change vs veh, PANK3 / RFU, SH3YL1 / Fold change vs veh, SH3YL1 / RFU, ZEB2 / Fold change vs veh, ZEB2 / RFU, NRIP1 / Fold change vs veh, NRIP1 / RFU, PTTG1IP / Fold change vs veh, PTTG1IP / RFU, CAPN2 / Fold change vs veh, CAPN2 / RFU, MED14 / Fold change vs veh, MED14 / RFU, SNORA58 / Fold change vs veh, SNORA58 / RFU, C1orf63 / Fold change vs veh, C1orf63 / RFU, LRRFIP1 / Fold change vs veh, LRRFIP1 / RFU, NDUFAF7 / Fold change vs veh, NDUFAF7 / RFU, SLC12A2 / Fold change vs veh, SLC12A2 / RFU, IBTK / Fold change vs veh, IBTK / RFU, ESF1 / Fold change vs veh, ESF1 / Fold change vs veh, TMEM50B / RFU, TAOK1 / Fold change vs veh, TAOK1 / RFU, ACBD3 / Fold change vs veh, ACBD3 / RFU, TMA16 / Fold change vs veh, TMA16 / RFU, RWDD3 / Fold change vs veh, RWDD3 / RFU, BCAT1 / Fold change vs veh, BCAT1 / RFU, EDEM3 / Fold change vs veh, EDEM3 / RFU, TMEM33 / Fold change vs veh, TMEM33 / RFU, WDR75 / Fold change vs veh, WDR75 / RFU, AHCTF1 / Fold change vs veh, AHCTF1 / RFU, TFRC / Fold change vs veh, TFRC / RFU, ZDHHC17 / Fold change vs veh, ZDHHC17 / RFU, NOM1 / Fold change vs veh, NOM1 / RFU, ARL8B / Fold change vs veh, ARL8B / RFU, ZBTB11 / Fold change vs veh, ZBTB11 / RFU, TAMM41 / Fold change vs veh, TAMM41 / RFU, KIAA1704 /// LOC100996395 / Fold change vs veh, KIAA1704 /// LOC100996395 / RFU, ING1 / Fold change vs veh, ING1 / RFU, TRMT61B / Fold change vs veh, TRMT61B / RFU, FUBP3 / Fold change vs veh, FUBP3 / RFU, TP53 / Fold change vs veh, TP53 / RFU, TNKS2 / Fold change vs veh, TNKS2 / RFU, ZFP14 / Fold change vs veh, ZFP14 / RFU, ACTR2 / Fold change vs veh, ACTR2 / RFU, PPP3R1 / Fold change vs veh, PPP3R1 / RFU, PIK3R1 / Fold change vs veh, PIK3R1 / RFU, HNRNPA1 / Fold change vs veh, HNRNPA1 / RFU, RNF170 / Fold change vs veh, RNF170 / RFU, ZNF28 / Fold change vs veh, ZNF28 / RFU, RNGTT / Fold change vs veh, RNGTT / RFU, OGT / Fold change vs veh, OGT / RFU, BRD1 / Fold change vs veh, BRD1 / RFU, MARS / Fold change vs veh, MARS / RFU, ZNF655 / Fold change vs veh, ZNF655 / RFU, FAHD1 / Fold change vs veh, FAHD1 / RFU, BDP1 / Fold change vs veh, BDP1 / RFU, LRRCC1 / Fold change vs veh, LRRCC1 / RFU, ARID1A / Fold change vs veh, ARID1A / RFU, ZNF146 / Fold change vs veh, ZNF146 / RFU, ZNF330 / Fold change vs veh, ZNF330 / RFU, GPN3 / Fold change vs veh, GPN3 / RFU, C9orf123 / Fold change vs veh, C9orf123 / RFU, N4BP2L2 / Fold change vs veh, N4BP2L2 / RFU, ARFIP1 / Fold change vs veh, ARFIP1 / RFU, FAM179B / Fold change vs veh, FAM179B / RFU, BCL10 / Fold change vs veh, BCL10 / RFU, UHRF1BP1L / Fold change vs veh, UHRF1BP1L / RFU, BET1 / Fold change vs veh, BET1 / RFU, CNOT2 / Fold change vs veh, CNOT2 / RFU, ZNF268 / Fold change vs veh, ZNF268 / Fold change vs veh, ZNF507 / RFU, DGCR2 / Fold change vs veh, DGCR2 / RFU, WDSUB1 / Fold change vs veh, WDSUB1 / Fold change vs veh, HSP90B1 /// MIR3652 / RFU, ADSS / Fold change vs veh, ADSS / RFU, GK / Fold change vs veh, GK / RFU, ZNF148 / Fold change vs veh, ZNF148 / RFU, TAF9 / Fold change vs veh, TAF9 / RFU, SLC1A5 / Fold change vs veh, SLC1A5 / RFU, SLMO2 / Fold change vs veh, SLMO2 / RFU, ABCC4 / Fold change vs veh, ABCC4 / RFU, LOC101060439 /// RAP1B / Fold change vs veh, LOC101060439 /// RAP1B / RFU, RFX7 / Fold change vs veh, RFX7 / RFU, GTPBP10 / Fold change vs veh, GTPBP10 / RFU, CNEP1R1 / Fold change vs veh, CNEP1R1 / RFU, BIVM-ERCC5 /// ERCC5 / Fold change vs veh, BIVM-ERCC5 /// ERCC5 / RFU, ILF3 / Fold change vs veh, ILF3 / RFU 11762660_at / Fold change /veh 11762660_at / RFU VCAN (11757783_s_at) / Fold change /veh VCAN (11757783_s_at) / RFU DDX43 (11728927_at) / Fold change /veh DDX43 (11728927_at) / RFU KRT8 (11758188_x_at) / Fold change /veh KRT8 (11758188_x_at) / RFU NKD1 (11759106_at) / Fold change /veh NKD1 (11759106_at) / RFU SRD5A1 (11742802_a_at) / Fold change /veh SRD5A1 (11742802_a_at) / RFU TPSAB1 /// TPSB2 (11721975_s_at) / Fold change /veh TPSAB1 /// TPSB2 (11721975_s_at) / RFU GSTM3 (11746129_a_at) / Fold change /veh GSTM3 (11746129_a_at) / RFU IL23R (11737362_x_at) / Fold change /veh IL23R (11737362_x_at) / RFU TMEM51 (11727254_a_at) / Fold change /veh TMEM51 (11727254_a_at) / RFU PIWIL2 (11732686_x_at) / Fold change /veh PIWIL2 (11732686_x_at) / RFU ORM1 (11744905_x_at) / Fold change /veh ORM1 (11744905_x_at) / RFU CCDC152 (11743942_at) / Fold change /veh CCDC152 (11743942_at) / RFU ECM1 (11717891_a_at) / Fold change /veh ECM1 (11717891_a_at) / RFU IL23R (11748794_a_at) / Fold change /veh IL23R (11748794_a_at) / RFU TNFAIP8L3 (11732012_x_at) / Fold change /veh TNFAIP8L3 (11732012_x_at) / RFU MBOAT4 (11741988_at) / Fold change /veh MBOAT4 (11741988_at) / RFU 11764193_at / Fold change /veh 11764193_at / RFU TMEM53 (11763286_at) / Fold change /veh TMEM53 (11763286_at) / RFU MAGEB2 (11727129_at) / Fold change /veh MAGEB2 (11727129_at) / RFU TMEM200A (11744735_a_at) / Fold change /veh TMEM200A (11744735_a_at) / RFU CCDC152 (11751479_a_at) / Fold change /veh CCDC152 (11751479_a_at) / RFU FAM211A (11726209_a_at) / Fold change /veh FAM211A (11726209_a_at) / RFU RGS16 (11746705_a_at) / Fold change /veh RGS16 (11746705_a_at) / RFU VCAN (11755009_s_at) / Fold change /veh VCAN (11755009_s_at) / RFU RHOB (11743442_s_at) / Fold change /veh RHOB (11743442_s_at) / RFU RGS16 (11720943_a_at) / Fold change /veh RGS16 (11720943_a_at) / RFU RGS16 (11720944_at) / Fold change /veh RGS16 (11720944_at) / RFU, VPS4B / Fold change vs veh, VPS4B / RFU, CREB1 / Fold change vs veh, CREB1 / RFU, DNAJC13 / Fold change vs veh, DNAJC13 / RFU, GNAQ / Fold change vs veh, GNAQ / RFU, CDK5R1 / Fold change vs veh, CDK5R1 / RFU, ZRANB3 / Fold change vs veh, ZRANB3 / RFU, CUL4A / Fold change vs veh, CUL4A / RFU, CCNY / Fold change vs veh, CCNY / RFU, UFL1 / Fold change vs veh, UFL1 / RFU, COG3 / Fold change vs veh, COG3 / RFU, DIAPH2 / Fold change vs veh, DIAPH2 / RFU, SKA2 / Fold change vs veh, SKA2 / RFU, AFF3 / Fold change vs veh, AFF3 / RFU, LMF1 / Fold change vs veh, LMF1 / RFU, IPO11 / Fold change vs veh, IPO11 / RFU, DFFB / Fold change vs veh, DFFB / RFU, FOXP1 / Fold change vs veh, FOXP1 / RFU, CARD8 / Fold change vs veh, CARD8 / RFU, STRN3 / Fold change vs veh, STRN3 / RFU, ADK / Fold change vs veh, ADK / RFU, RASSF2 / Fold change vs veh, RASSF2 / RFU, WIPF1 / Fold change vs veh, WIPF1 / RFU, LARP1B / Fold change vs veh, LARP1B / RFU, RASA1 / Fold change vs veh, RASA1 / RFU, RB1 / Fold change vs veh, RB1 / RFU, PPFIA1 / Fold change vs veh, PPFIA1 / RFU, MAT2A / Fold change vs veh, MAT2A / RFU, CCT5 / Fold change vs veh, CCT5 / RFU, WDR92 / Fold change vs veh, WDR92 / RFU, CUX1 / Fold change vs veh, CUX1 / RFU, TTC7A / Fold change vs veh, TTC7A / RFU, TMEM135 / Fold change vs veh, TMEM135 / RFU, DEPTOR / Fold change vs veh, DEPTOR / RFU, CPM / Fold change vs veh, CPM / RFU, DNAJB6 / Fold change vs veh, DNAJB6 / RFU, CACNA2D3 / Fold change vs veh, CACNA2D3 / RFU, DTX4 / Fold change vs veh, DTX4 / RFU, TFCP2 / Fold change vs veh, TFCP2 / RFU, GMCL1 /// GMCL1P1 / Fold change vs veh, GMCL1 /// GMCL1P1 / RFU, AEBP2 / Fold change vs veh, AEBP2 / RFU, SNHG1 /// SNORD22 /// SNORD25 /// SNORD26 /// SNORD27 /// SNORD28 /// SNORD29 /// SNORD31 / Fold change vs veh, SNHG1 /// SNORD22 /// SNORD25 /// SNORD26 /// SNORD27 /// SNORD28 /// SNORD29 /// SNORD31 / Fold change (Aza/veh), C12orf56 (ProbeSet 11735607_a_at) / Fold change (ACY-1035/veh), C12orf56 (ProbeSet 11735607_a_at) / Fold change (Aza/veh), FGFR1OP (ProbeSet 11751329_s_at) / Fold change (ACY-1035/veh), FGFR1OP (ProbeSet 11751329_s_at) / Fold change (Aza/veh), VPS36 (ProbeSet 11739960_a_at) / Fold change (ACY-1035/veh), VPS36 (ProbeSet 11739960_a_at) / RFU SYPL1 (11715823_x_at) / Fold change /veh SYPL1 (11715823_x_at) / RFU IGFBP7 (11715501_s_at) / Fold change /veh IGFBP7 (11715501_s_at) / RFU REEP3 (11722064_at) / Fold change /veh REEP3 (11722064_at) / RFU IGLL1 (11728026_x_at) / Fold change /veh IGLL1 (11728026_x_at): dose or concentration left out as unconfirmed
Details: MV-4-11 cells, 48 hours

Nc1ncn([C@@H]2O[C@H](CO)[C@@H](O)[C@H]2O)c(=O)n1 [azacitidine]
Fold change /veh ECM1 (11717891_a_at): 1.26
